Source: US20240327764A1, “Manufacturing a Distilled Spirit Based Functional Ingredient” (priority 2022, published 2024)

What was measured:
MAO A = molecular target: T1, MAO A (Homo sapiens, UniProt P21397); assay: MAO A inhibitory activity assay (% inhibition); assay type: biochemical; details: terpene added at 0.5% (v/v) to Don Julio Añejo (40% ABV) versus 40% ethanol
T1 sequence (P21397 1-527): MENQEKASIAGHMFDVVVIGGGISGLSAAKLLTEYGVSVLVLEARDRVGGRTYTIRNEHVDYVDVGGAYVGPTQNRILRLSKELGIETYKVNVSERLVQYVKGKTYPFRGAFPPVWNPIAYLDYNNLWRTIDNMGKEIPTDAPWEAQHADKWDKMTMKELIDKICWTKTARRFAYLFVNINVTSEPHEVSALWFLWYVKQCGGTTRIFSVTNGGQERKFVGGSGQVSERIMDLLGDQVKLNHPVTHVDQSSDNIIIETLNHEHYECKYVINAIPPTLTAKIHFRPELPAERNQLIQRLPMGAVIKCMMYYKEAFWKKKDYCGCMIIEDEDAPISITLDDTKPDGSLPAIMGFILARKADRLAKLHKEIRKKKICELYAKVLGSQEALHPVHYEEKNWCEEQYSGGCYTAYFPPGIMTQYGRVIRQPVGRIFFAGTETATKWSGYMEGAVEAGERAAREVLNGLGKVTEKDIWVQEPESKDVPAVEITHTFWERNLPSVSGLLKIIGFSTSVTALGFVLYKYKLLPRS
From the text: (§1) U.S. […] The contents of this document are incorporated herein by reference, but briefly, methods that include reverse osmosis and low-pressure evaporation to provide retentates with significant concentrations of these inhibitors are described. In addition, details of assay methods for monoamine oxidase activity (and therefore inhibition thereof) and for ethanol content are provided.

MAO B = molecular target: T2, MAO B (Homo sapiens, UniProt P27338); assay: MAO B inhibitory activity assay (% inhibition); assay type: biochemical; details: terpene added at 0.5% (v/v) to Don Julio Añejo (40% ABV) versus 40% ethanol
T2 sequence (P27338 1-520): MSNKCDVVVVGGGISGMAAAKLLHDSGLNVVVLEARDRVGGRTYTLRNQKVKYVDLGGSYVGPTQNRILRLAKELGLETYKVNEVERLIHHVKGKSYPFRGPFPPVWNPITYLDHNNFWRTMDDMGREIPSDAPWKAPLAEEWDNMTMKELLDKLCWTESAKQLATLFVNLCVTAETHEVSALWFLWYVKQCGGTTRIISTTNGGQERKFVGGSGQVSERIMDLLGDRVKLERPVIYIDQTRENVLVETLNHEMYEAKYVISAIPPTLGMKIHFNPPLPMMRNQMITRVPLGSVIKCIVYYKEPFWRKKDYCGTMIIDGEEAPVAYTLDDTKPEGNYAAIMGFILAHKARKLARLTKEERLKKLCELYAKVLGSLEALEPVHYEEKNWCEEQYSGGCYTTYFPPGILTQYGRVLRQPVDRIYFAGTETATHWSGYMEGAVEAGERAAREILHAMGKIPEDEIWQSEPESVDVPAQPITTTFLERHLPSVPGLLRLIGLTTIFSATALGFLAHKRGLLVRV
From the text: as §1

In the case of `C=C(C)[C@@H]1CCC2=CCC[C@@H](C)[C@]2(C)C1` [valencene], the “Δ % Inhibition MAO A (DJA + terpene) − (ETOH + terpene)” value (MAO A) was 9% and the “Δ % Inhibition MAO B (DJA + terpene) − (ETOH + terpene)” value (MAO B) was 20%.
